Data on 2 molecules can be found in patent publication EP3964196A1, “USE OF CHL[…] CETYLPYRIDINIUM CHLORIDE AS ANTIVIRAL AGENTS” (Ferton Holding S.A., priority 2020, dated 2022).

This experiment deals with SARS-CoV-2. As to the kind of experiment: Virucidal efficacy: 30sec incubation of SARS-CoV-2 with mouth rinsing solution, then standard plaque assay on Vero E6 cells. In kind it is cell-based, Severe acute respiratory syndrome coronavirus 2. The conditions noted are these: 1x10^6 pfu SARS-CoV-2 incubated with solution (2-fold diluted) for 30sec at 37°C; Dilution 4 analyzed on Vero E6; compared to negative control. Here is the method:
A mouth rinsing solution according to the invention (see example 1 below) and some of their individual active components were tested regarding their virucidal efficacy against the novel coronavirus SARS-CoV-2, in vitro. To evaluate if this procedure is sufficient to successfully inactivate SARS-CoV-2, in the following study 1x10^6 infectious SARS-CoV-2 particles were incubated with the solutions (dilution factor: 2) for 30sec. After a serial dilution the samples were submitted to a standard plaque assay to check for the presence of infectious virus particles post incubation with the different solutions.
Test solutions: • Example 1 (0.1% Chlorhexidine (CHX), 0.05% CPC, PEG-40 hydrogenated castor oil), according to the invention Comparative examples: • 0.1% CHX plus 0.05% CPC • 0.05% CPC • 0.1% CHX • 1.5% H2O2 • 0.5% H2O2 […]
The samples were mixed briefly by vortexing and incubated at 37°C for 30sec. […] Dilution 4 of each sample was analyzed in technical duplicates in a plaque assay. […]
The virucidal activity of example 1 and some of their individual components were investigated against the novel corona virus SARS-CoV-2 by a 30sec incubation of 1x10^6 pfu SARS-CoV-2 with the test substances, followed by a standard plaque assay. […] Medium", positive control, in column 3, each analyzed in technical duplicates.

Consider `[H]/N=C(\N/C(=N/[H])NCCCCCCNC(=N)NC(=N)Nc1ccc(Cl)cc1)Nc1ccc(Cl)cc1` [0.1% CHX, Chlorhexidine], for which the “infectious SARS-CoV-2 particles / number of plaques in the plaque assay” value is listed as “no reduction compared to the negative control”. For `OO` [1.5% H2O2, Hydrogen peroxide] the value was “no reduction compared to the negative control”.
